Test results: patent US9648878B2, “Herbicidal agents containing flufenacet” (BAYER CROPSCIENCE AG, priority 2012, dated 2017)

Columns and labels:
[1] = test system: LOLSS resistant to HRAC group A; test: Greenhouse post-emergence herbicidal action on resistant Lolium biotype (HRAC group A resistant); assay type: in vivo, Lolium spp.; details: post-emergence (PO, BBCH 11); dose g of AS/ha: flufenacet 60, aclonifen 150, diflufenican 37.5, (A)+(B)+(C) 60+150+37.5, pinoxaden+cloquintocet-mexyl 60+15, mesosulfuron+iodosulfuron+mefenpyr 15+3+45
Procedure: (§1) In the standard implementation of the test, seeds of various broad-leaved weed and weed grass biotypes (origins) were sown in an 8-13 cm diameter pot filled with natural soil of a standard field soil (loamy silt; non-sterile) and covered with a covering soil layer of about 1 cm. The pots were then cultivated in a greenhouse (12-16 h light, temperature day 20-22° C., night 15-18° C.) until the time of application. The pots were treated on a laboratory track sprayer with spray liquors comprising the compositions according to the invention, mixtures of the prior art or the components applied individually. Application of the active compounds or active compound combinations formulated as WG, WP, EC or otherwise was carried out at the appropriate growth stages of the plants. The amount of water used for spray application was 100-600 I/ha. After the treatment, the plants were returned to the greenhouses.
(§2) About 3 weeks after the application, the soil action or/and foliar action was assessed visually according to a scale of 0-100% in comparison to an untreated comparative group: 0%=no noticable effect compared to the untreated comparative group; 100%=full effect compared to the untreated comparative group.
(§3) 2. Post-emergence action against weeds: seeds of various broad-leaved weed and weed grass biotypes (origins) were sown in an 8-13 cm diameter pot filled with natural soil of a standard field soil (loamy silt; non-sterile) and covered with a covering soil layer of about 1 cm. […]
(§4) Insofar as herbicidal effects of the compositions according to the invention compared to mixtures of the prior art or compared to components applied individually against economically important mono- and dicotyledonous harmful plants were the center of attention, the synergistic herbicidal activities were calculated using Colby's formula (cf. S. R. Colby; Weeds 15 (1967), 20-22): E^C=(A+B+C)−(A×B+A×C+B×C)/100+(A×B×C)/10000 […]
(§5) Δ=difference (%) of the measured value (%) to the expected value (%) (measured value minus expected value) […]

[2] = test system: LOLSS resistant to HRAC group B; test: Greenhouse post-emergence herbicidal action on resistant Lolium biotype (HRAC group B resistant); assay type: in vivo, Lolium spp.; details: post-emergence (PO, BBCH 11); dose g of AS/ha: flufenacet 60, aclonifen 150, diflufenican 37.5, (A)+(B)+(C) 60+150+37.5, pinoxaden+cloquintocet-mexyl 60+15, mesosulfuron+iodosulfuron+mefenpyr 15+3+45
Procedure: as §1, §2, §3, §4, §5

Compound | herbicidal effect (visual score 0-100% vs untreated), LOLSS resistant to HRAC group A [1] [%] | herbicidal effect (visual score 0-100% vs untreated), LOLSS resistant to HRAC group B [2] [%]
Nc1c([N+](=O)[O-])ccc(Oc2ccccc2)c1Cl [aclonifen (B), 2-chloro-6-nitro-3-phenoxybenzenamine] | 5 | 38
CC(C)N(C(=O)COc1nnc(C(F)(F)F)s1)c1ccc(F)cc1 [flufenacet (A), N-(4-fluorophenyl)-N-(1-methylethyl)-2-[[5-(trifluoromethyl)-1,3,4-thiadiazol-2-yl]oxy]acetamide] | 18 | 60
O=C(Nc1ccc(F)cc1F)c1cccnc1Oc1cccc(C(F)(F)F)c1 [diflufenican (C), N-(2,4-difluorophenyl)-2-[3-(trifluoromethyl)phenoxy]-3-pyridinecarboxamide] | 23 | 35
